Source: patent US11213530B2, “Gallium in the treatment of coronavirus disease” (priority 2020, dated 2022)

Test system: SARS-CoV-2 (WIV04)
Assay type: cell-based
Details: Vero-E6 cells

`Cc1occc(=O)c1[O-].Cc1occc(=O)c1[O-].Cc1occc(=O)c1[O-].[Ga+3]` [gallium maltolate] was tested, and the “in vitro antiviral activity” value (MOI 0.005, 0.1 μM to 100 μM, 24 hours, FIG. 1) was “pronounced, dose-dependent in vitro antiviral activity” and the EC50 (MOI 0.005, viral RNA in culture media by qRT-PCR at 24 hours after treatment, read-out: concentration that inhibited viral replication by 50% (EC50)) was ~14 µM.
